Measured values taken from patent US9403866B2, “Compositions and methods for increasing telomerase activity” (Telomerase Activation Sciences, Inc., priority 2009, dated 2016).
Like-named read-outs stand apart in the source and are kept apart here.

Experiments:
SAECs [1] = test: Long-term replicative capacity of SAECs in continuous culture; assay type: cell-based, human; settings: 0.1 μM, 60 days continuous culture
Description: SAECs were treated continuously with 0.1 μM of compound 4 in a final concentration of 0.004% ethanol for 60 days in continuous culture. Compound 4 increased the long-term replicative capacity of SAECs by about 2 population doublings (4× increase in calculated cell number).

lung fibroblasts [2] = test: Alamar Blue Proliferation Assay in lung fibroblasts; assay type: cell-based, human; settings: 3 days
Description: (§1) Human SAECs or human fibroblasts were grown in the presence of different concentrations of compound 4 in a final concentration of 1% DMSO in the medium. After 3 days the cells were harvested and proliferation was measured using the Alamar Blue Proliferation Assay.

lung fibroblasts [3] = test: Long-term culture of lung fibroblasts; assay type: cell-based, human
SAECs [4] = test: Alamar Blue Proliferation Assay in SAECs; assay type: cell-based, human; settings: 3 days, 1% DMSO, different concentrations
Description: as §1

[5] = tested on: Matrigel plugs; bone marrow stem/progenitor cells; test: Administration to aging Tert (+/-) mice: hemoglobin and total RNA in Matrigel plugs, number of bone marrow stem/progenitor cells; assay type: in vivo, Tert (+/-) mice on a C57BL/6 background; settings: 10 mg/kg/day PO (BID)
Description: Aging Tert (+/−) mice on a C57BL/6 background (8-9 months) were dosed with compound 4 at 10 mg/kg/day PO (BID) in 2% ethanol. Mice were pre-dosed for 1 day (Day −1). Matrigel™ was injected subcutaneously in the abdomen on Day 0, and plugs were harvested on Day 12.
One half of the plug was analyzed for telomerase activity and hemoglobin content, which is indicative of blood vessel formation (RBC cell buffer extraction, followed by M-PER extraction). The other half of the plug was processed for histology.
The Matrigel™ plug has a 1.2-fold increase in hemoglobin levels (p<0.2) n=15/group for mice treated with compound 4.
Total RNA, which reflects cell number, was increased 1.5-fold (p<0.1) n−15/group in Matrigel™ plugs after treatment with compound 4.
Bone marrow stem and progenitor cells were purified using lineage depletion magnetic sorting technology (Miltenyi MACS columns).
The number of purified bone marrow stem/progenitor cells increased 1.5-fold (p<0.1) n=6/group in mice treated with compound 4.

[6] = parameters: species or system male Beagle dogs; settings: male, Beagle, dog, in vivo, po, 10 mg/kg
Description: The plasma level of a compound following a single intravenous and oral administration in male Beagle dogs was determined. Plasma samples were collected and used to determine the plasma concentration of the compound and metabolites. In addition tissue samples, including whisker samples and PBMC cells were collected for telomerase activity analysis.
(§2) Male Beagle dogs were divided into treatment groups according to Table 5. The dogs were provided ad libitum SLAC-MO1 #W080701 (Shanghai Laboratories Animal Center, Shanghai, China) throughout the in-life portion of the study with the exception of the overnight fasting period prior to oral dosing. Water was available ad libitum.
The compounds were dissolved in 2% EtOH/98% water […] to yield a final concentration of 2.5 mg/ml and 1 mg/ml for both intravenous and oral administration, respectively. The concentration of each compound was confirmed by HPLC analysis.
Doses were administered intravenously via the left femoral vein and then by oral dosing one week later. Body weights were taken on the day of dose administration. Dose volume was determined based on individual body weight taken on day of dosing.
Blood samples (approximately 250 μL) were collected via right femoral vein into tubes containing K2-EDTA anticoagulant and 1 mg/ml NaF at appropriate time points. Blood was stored on ice and then plasma separated via centrifugation (8000 rpm×6 minutes). The plasma was stored at […] until LC-MS/MS analysis.

[7] = Plasma levels and bioavailability in rats; settings: male, Sprague Dawley, rat, in vivo, po, 10 mg/kg
Description: The plasma levels of a compound following a single intravenous and oral administration in carotid artery-cannulated male Sprague Dawley rats was determined. Plasma samples were collected and used to determine the plasma concentration of the compound and metabolites. In addition tissue samples, including whisker samples and PBMC cells were collected for telomerase activity analysis.
as §2, with “Carotid artery-cannulated male Sprague Dawley rats” for “Male Beagle dogs”, “6.” for “5.”, “rats” for “dogs”, “# YY080208” for “#W080701”
The compounds were dissolved in 2% EtOH/98% water to yield a final concentration of 2.5 mg/ml and 1 mg/ml for both intravenous and oral administration, respectively. The concentration of each compound was confirmed by HPLC analysis.
(§3) Body weights were taken on the day of dose administration. Dose volume was determined based on individual body weight taken on day of dosing.
(§4) Blood samples (approximately 250 μL) were collected via cannulae into tubes containing K2-EDTA anticoagulant and 1 mg/ml NaF at the various time points. Blood was stored on ice and then plasma separated via centrifugation (8000 rpm×6 minutes). The plasma was stored at […] until LC-MS/MS analysis.
Percentage of bioavailability was calculated.

[8] = tested on: mTERT heterozygous mouse lineage-depleted bone marrow cells; test: Colony formation assay of mTERT heterozygous mouse lineage-depleted bone marrow cells; assay type: cell-based; settings: 12 days
Description: mTERT heterozygous mouse lineage-depleted bone marrow cells were plated into a standard colony formation assay in the presence of compound 4 (100 nm and 500 nM), vehicle (0.1% DMSO), or nothing. After 12 days, hematopoietic colonies were enumerated (BFU-E, CFU-GM, and CFU-GEMM). Total colony counts were: untreated, 67; vehicle-treated, 64; 100 nM compound 4, 68; and 500 nM compound 4, 77.

[9] = Plasma levels and bioavailability in mice; assay type: in vivo, male C57BL/6 mice; settings: male, C57BL/6, mouse, 10 mg/kg, 2% EtOH/98% water, read-out: Bioavailability % F
Description: The plasma levels of a compound following a single intravenous, oral, intra-peritoneal, or sub-cutaneous administration in male C57BL/6 mice was determined. Plasma samples were collected and used to determine the plasma concentration of the compound and metabolites. In addition tissue samples, including whisker samples, and peripheral blood mononuclear cells (PBMC) cells were collected for telomerase activity analysis.
as §2, with “[…] mice” for “Male Beagle dogs”, “groups.” for “groups according to Table 5.”, “mice” for “dogs”, “#W080208” for “#W080701”
as §3
as §4, with “300” for “250”, “cardiac puncture or via retro-orbital puncture after anesthesia” for “cannulae”, “points after dosing.” for “points.”

With `CC(C)C(N)C(=O)OC1CCC23CC24CCC2(C)C(C5(C)CCC(C(C)(C)O)O5)C(O)CC2(C)C4CC(O)C3C1(C)C` (stereo not drawn) [Compound 4, 2-(L)-Amino-3-methyl-butyric acid 6α,16β-dihydroxy-17-[5-(1-hydroxy-1-methyl-ethyl)-2-methyl-tetrahydro-furan-2-yl]-4,4,13,14-tetramethyl-tetradecahydro-cyclopropa[9,10]cyclopenta[a]phenanthren-3β-yl ester] the “increase in calculated cell number” value (SAECs [1]) was 4 ×, the “increase of long-term replicative capacity” value (SAECs [1]; 0.004% ethanol) was “about 2 population doublings” and the “effect on short-term proliferation” value (lung fibroblasts [2]) was “No effect”. The “effect in long-term culture” value (lung fibroblasts [3]) was “No effect”, the increased proliferation (SAECs [4]) was “about 50%” and the “Total RNA (reflects cell number) increase in Matrigel plugs” value ([5]; p<0.1) was 1.5 fold. For the same compound, the “increase in number of purified bone marrow stem/progenitor cells” value ([5]; p<0.1) was 1.5 fold, the “increase in hemoglobin levels in the Matrigel plug” value ([5]; p<0.2) was 1.2 fold and the “Bioavailability % F” value [6] was 47%. For the same compound, the “Bioavailability % F” value [7] was 36%, the BFU-E colonies ([8]; 100 nM) was 22 and the CFU-E colonies ([8]; 100 nM) was 43. It also gave a CFU-GEMM colonies ([8]; 100 nM) of 3, a Total colony counts ([8]; 100 nM) of 68 and a BFU-E colonies ([8]; 500 nM) of 27. The CFU-E colonies ([8]; 500 nM) was 48, the CFU-GEMM colonies ([8]; 500 nM) was 1 and the Total colony counts ([8]; 500 nM) was 77. It also gave a bioavailability ([9]; PO) of 48% and a bioavailability ([9]; SC) of 66%.
